Like-named read-outs stand apart in the source and are kept apart here.
What was measured:
[1] = cited from earlier work
mice = details: single intravenous dose of 12.5 μg/kg; cited from earlier work
HL60 cells = test: In vitro cytotoxicity towards HL60 cells; format: cell-based, human; details: HL60/s cells, 5-day exposure; read-out: IC50 Concentration
Experimental: (§1) Sulfide or disulfide-containing and mercapto-containing prodrugs of CC-1065 analogs of the present invention can be evaluated for their ability to suppress proliferation of various unwanted cell lines in vitro under incubation conditions. Cell lines such as, for example, Ramos cell line and HL60 can easily be used for the assessment of the cytotoxicity of these compounds. Cells to be evaluated can be exposed to the compounds for 24 hours and the surviving fractions of cells measured in direct assays by known methods. IC50 values can then be calculated from the results of the assays.
Cytotoxicity of the prodrugs of the present invention and their conjugates with cell binding agents can be measured after cleavage of the protecting group and conversion into the active drug. Cytotoxicity to non-adherent cell lines such as Namalwa and HL60 can be measured by back-extrapolation of cell proliferation curves as described in Goldmacher et al, 135 J. Immunol. 3648-3651 (1985). Cytotoxicity of these compounds to adherent cell lines such as A-375 and SCaBER can be determined by clonogenic assays as described in Goldmacher et al, 102 J. Cell Biol. 1312-1319 (1986). […]
• Cytotoxicity of DC07-SMe (FIG. 2) and DC1-SMe (FIG. 1D) towards Ramos and HL60/S cells has been measured in vitro with 5-day exposure. […]
• Cytotoxicity of DC1-SPy and DC07-SPy towards Ramos and HL60 cells has been measured. […]

Ramos cells = test: In vitro cytotoxicity towards Ramos cells; format: cell-based, human
Experimental: as §1
(§2) Cytotoxicity of the prodrugs of the present invention and their conjugates with cell binding agents can be measured after cleavage of the protecting group and conversion into the active drug. Cytotoxicity to non-adherent cell lines such as Namalwa and HL60 can be measured by back-extrapolation of cell proliferation curves as described in Goldmacher et al, 135 J. Immunol. 3648-3651 (1985). Cytotoxicity of these compounds to adherent cell lines such as A-375 and SCaBER can be determined by clonogenic assays as described in Goldmacher et al, 102 J. Cell Biol. 1312-1319 (1986).
(§3) The human cancer cell lines HL60, Namalwa, A-375, COLO205 and Ramos were obtained from the American Type Culture Collection (ATCC). Kara is a murine tumor cell line that has been stably transfected with the human CD33 antigen.
• Cytotoxicity of DC07-SMe (FIG. 2) and DC1-SMe (FIG. 1D) towards Ramos and HL60/S cells has been measured in vitro with 5-day exposure. IC50 are shown below.
• Cytotoxicity of DC1-SPy and DC07-SPy towards Ramos and HL60 cells has been measured. Results are given in FIG. 7 and IC50 are shown below.
(§4) • Cytotoxicity of DC08-SSPy towards Namalwa and Ramos cells has been measured. Results are given in FIG. 8 and IC50 are shown below.
• Cytotoxicity of MY9-6-DC07 (disulfide linked) towards antigen positive Kara and antigen negative Ramos cells has been measured. Results are given in FIG. 9 and IC50 are shown below.

[2] = Conversion of prodrug by incubation in mice serum; format: in vitro ADME
Description: (§5) The synthesis of prodrugs DC07 (7a), DC08 (8a) and DC107 (FIG. 4) is described herein. DC07 and DC08 as well as DC107 are derived from the parent drug DC1 and DC101, while DC09 (9a) can be prepared from the pegylated parent drug DC5 which was described in U.S. Pat. No. 6,756,397 B2 (FIG. 3). […] These drugs also have enhanced water solubility as compared with DC1.

[3] = Stability in aqueous solutions; format: physicochemical; details: pH 5.5 or below
Description: as §5

[4] = Conversion of prodrug by incubation in serum or plasma; format: in vitro ADME
Description: as §5

Namalwa cells = test: In vitro cytotoxicity towards Namalwa cells; format: cell-based, human; details: Namalwa cells (FIG. 8)
Description: as §2, §3, §4

COLO 205 cells = test: In vitro cytotoxicity towards antigen positive COLO 205 cells; format: cell-based, human
Description: as §2, §3
(§6) • Cytotoxicity of huC242-DC07 (thioether linked) towards antigen positive COLO 205 and antigen negative A-375 cells has been measured. Results are given in FIG. 10 and IC50 are shown below.

A-375 cells = test: In vitro cytotoxicity towards antigen negative A-375 cells; format: cell-based, human
Description: as §2, §3, §6

[5] = Ramos cells, 5-day exposure, read-out: IC50 Concentration

COc1c(O)c2c(c3cc(C(=O)N4CCc5c4c(O)c(OC)c4[nH]c(C(=O)N6CC7CC78C6=CC(=O)c6[nH]cc(C)c68)cc54)[nH]c13)CCN2C(N)=O (stereo not shown) [CC-1065]
potency in vitro relative to doxorubicin, methotrexate and vincristine [1]: about 1000 fold
toxicity (mice): delayed hepatotoxicity leading to mortality on day 50

CSSCCC(=O)Nc1ccc2[nH]c(C(=O)Nc3ccc4[nH]c(C(=O)N5C[C@@H](CCl)c6c5cc(O)c5ccccc65)cc4c3)cc2c1 [DC1-SMe, 1-[S]-(chloromethyl)-5-hydroxy-3-{{5-[5-(3-methyldithiopropionyl)indol-2-yl-carbonylamino]indole-2-yl}carbonyl}-1,2-dihydro-3H-benz[e]indole, reference compound]
IC50 (HL60 cells): 0.036 nM
IC50 (Ramos cells; [5]): 0.062 nM

CSSCCC(=O)Nc1ccc2[nH]c(C(=O)Nc3ccc4[nH]c(C(=O)N5C[C@@H](CCl)c6c5cc(OC(=O)Nc5cccc(S(=O)(=O)O)c5)c5ccccc65)cc4c3)cc2c1 [DC07-SMe]
IC50 (HL60 cells): 0.05 nM
IC50 (Ramos cells; [5]): 0.12 nM
conversion into the parent drug [2]: converts it into the parent drug DC1SMe

O=C(CCS)Nc1ccc2[nH]c(C(=O)Nc3ccc4[nH]c(C(=O)N5C[C@@H](CCl)c6c5cc(OC(=O)Nc5cccc(S(=O)(=O)O)c5)c5ccccc65)cc4c3)cc2c1 [DC07]
stability in aqueous solutions [3]: extremely stable
conversion into the parent drug [4]: can be converted into the parent drug DC1

(S)—N-[2-{(1-chloromethyl)-1,2-dihydro-5-[(3-hydroxysulfonylmethyl-phenyl)aminocarbonyloxy]-3H-benz(e)indol-3-yl}carbonyl]-H-indol-5-yl]-5-{[3-(2-pyridyldithio)-propanoyl]-amino}-1H-indole-2-carboxamide [DC08-SSPy]
IC50 (Ramos cells; Ramos cells (FIG. 8), read-out: IC50): 0.42 nM
IC50 (Namalwa cells): 0.42 nM

B1: huC242-DC07: huC242-DC07 (thioether linked) conjugate (conjugate, chains of the INN, looked up)
VH: QVQLVQSGAEVKKPGETVKISCKASDYTFTYYGMNWVKQAPGQGLKWMGWIDTTTGEPTYAQKFQGRIAFSLETSASTAYLQIKSLKSEDTATYFCARRGPYNWYFDVWGQGTTVTVSS
VL: DIVMTQSPLSVPVTPGEPVSISCRSSKSLLHSNGNTYLYWFLQRPGQSPQLLIYRMSNLVSGVPDRFSGSGSGTAFTLRISRVEAEDVGVYYCLQHLEYPFTFGPGTKLELK
modifications: DC07 drug, thioether linked
notes: huC242-DC07 (thioether linked) conjugate
IC50 (COLO 205 cells): 0.035 nM
IC50 (A-375 cells): 1.3 nM

From patent US8012978B2, “Prodrugs of CC-A1065 analogs” (ImmunoGen, Inc., priority 2006, dated 2011)
